Reference: US20020137929A1, “1 - (3-heterocyclylphenyl) isothiourea, -isourea, -guanidine and -amidine herbicidal agents” (Intellectual Property Department, BASF Aktiengesellschaft, priority 1998, published 2002)

Tests used:
CYPIR (Rice Flatsedge) = assay: Preemergence weed control under flooded paddy conditions; assay type: in vivo, Cyperus iria; conditions: rated 3-4 weeks after treatment
Summary of the method: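 Seeds or propagules sown in top 0.5 cm of silt loam soil, flooded 1.5 to 3 cm above surface throughout. Compound in 50/50 v/v aqueous/acetone pipetted into flood water at about 0.0313 to 0.500 kg/ha. Visual 0-9 rating versus control after three to four weeks in greenhouse.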

[1] = tested on: CHEAL (Lambsquarters, Common); assay: Postemergence herbicidal evaluation; assay type: in vivo, Chenopodium album; conditions: postemergence
Summary of the method: (§1)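 Two-week seedlings sprayed postemergence at 40 psi; formulation: 1:1 acetone/water, 0.5% TWEEN 20; application ≈0.0156–0.500 kg/ha. Greenhouse grow-out, then 0–9 visual scoring at 4–5 weeks.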

CYPSE (Flatsedge) = assay: Preemergence weed control under flooded paddy conditions; assay type: in vivo, Cyperus serotinus; conditions: rated 3-4 weeks after treatment
Summary of the method: (§2)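 Ratings on a 0-9 visual scale cover stand, vigor, malformation, size, chlorosis and overall appearance relative to a control, taken three to four weeks post-treatment. Application was into flood water over freshly sown silt loam at roughly 0.0313 to 0.500 kg/ha.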

GALAP (Galium) [2] = assay: Postemergence herbicidal evaluation; assay type: in vivo, Galium aparine; conditions: postemergence
Summary of the method: as §1

CASOB (Sicklepod) [3] = assay: Preemergence herbicidal evaluation; assay type: in vivo, Cassia obtusifolia; conditions: rated 4-5 weeks after treatment, rating scale 0-9
Summary of the method: (§3)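 In this greenhouse assay, monocot and dicot seeds are planted in soil and treated prior to emergence with an aqueous acetone spray (about 0.0156-0.500 kg/ha). Plants are assessed visually against control on a 0-9 scale after 4-5 weeks.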

GALAP (Galium) [4] = assay: Preemergence herbicidal evaluation; assay type: in vivo, Galium aparine; conditions: rated 4-5 weeks after treatment, rating scale 0-9
Summary of the method: as §3

ZEAMX (Corn, Field) = assay: Preemergence herbicidal evaluation; assay type: in vivo, Zea mays; conditions: rated 4-5 weeks after treatment, rating scale 0-9
Summary of the method: as §3

[5] = tested on: SAGPY (Arrowhead (Pygmaea)); assay: Preemergence weed control under flooded paddy conditions; assay type: in vivo, Sagittaria pygmaea; conditions: rated 3-4 weeks after treatment
Summary of the method: as §2

CASOB (Sicklepod) [6] = assay: Postemergence herbicidal evaluation; assay type: in vivo, Cassia obtusifolia; conditions: postemergence
Summary of the method: as §1

ECHCG (Barnyardgrass) = assay: Postemergence herbicidal evaluation; assay type: in vivo, Echinochloa crus-galli; conditions: postemergence
Summary of the method: as §1

AMBEL (Ragweed, Common) = assay: Postemergence herbicidal evaluation; assay type: in vivo, Ambrosia artemisifolia; conditions: postemergence
Summary of the method: as §1

SETVI (Foxtail, Green) = assay: Postemergence herbicidal evaluation; assay type: in vivo, Setaria viridis; conditions: postemergence
Summary of the method: as §1

ORYSAT (Rice, Tebonnet) = assay: Postemergence herbicidal evaluation; assay type: in vivo, Oryza sativa, (L.) Tebonnet; conditions: postemergence
Summary of the method: as §1

[7] = tested on: GLXMAW (Soybean, Williams); assay: Postemergence herbicidal evaluation; assay type: in vivo, Glycine max, (L.) Merr. cv Williams; conditions: postemergence
Summary of the method: as §1

Cn1c(C(F)(F)F)cc(=O)n(-c2cc(N=C3SCC(=O)N3Cc3ccc(Cl)c(Cl)c3)c(Cl)cc2F)c1=O [Compound 144, 3-{4-Chloro-5-{[3-(3,4-dichlorobenzyl)-4-oxo-2-thiazolidinylidene]amino}-2-fluorophenyl}-1-methyl-6-(trifluoromethyl)-2,4(1H,3H)-pyrimidinedione]
5.5: Herbicidal rating GLXMAW ([7]; rate 0.0313 kg/ha)
5.0: Herbicidal rating CASOB (CASOB (Sicklepod) [6]; rate 0.0313 kg/ha) | Herbicidal rating GLXMAW ([7]; rate 0.0156 kg/ha)
6.0: Herbicidal rating SETVI (SETVI (Foxtail, Green); rate 0.0625 kg/ha)
6.5: Herbicidal rating GLXMAW ([7]; rate 0.0625 kg/ha)
4.0: Herbicidal rating GALAP (GALAP (Galium) [2]; rate 0.0625 kg/ha) | herbicidal effect rating, SAGPY ([5]; 0.2500 kg/ha) | Herbicidal rating ECHCG (ECHCG (Barnyardgrass); rate 0.0625 kg/ha)
7.0: Herbicidal rating CHEAL ([1]; rate 0.0156 kg/ha) | herbicidal effect rating, CYPSE (CYPSE (Flatsedge); 0.0313 kg/ha) | herbicidal effect rating, CYPSE (CYPSE (Flatsedge); 0.0625 kg/ha) | Herbicidal rating CASOB (CASOB (Sicklepod) [6]; rate 0.0625 kg/ha) | Herbicidal rating AMBEL (AMBEL (Ragweed, Common); rate 0.0156 kg/ha)
2.5: Herbicidal rating ORYSAT (ORYSAT (Rice, Tebonnet); rate 0.0156 kg/ha) | Herbicidal rating ORYSAT (ORYSAT (Rice, Tebonnet); rate 0.0313 kg/ha)
2.0: Preemergence herbicidal rating CASOB (CASOB (Sicklepod) [3]; rate 0.2500 kg/ha) | Preemergence herbicidal rating GALAP (GALAP (Galium) [4]; rate 0.1250 kg/ha) | Preemergence herbicidal rating GALAP (GALAP (Galium) [4]; rate 0.2500 kg/ha) | herbicidal effect rating, SAGPY ([5]; 0.1250 kg/ha) | Herbicidal rating ECHCG (ECHCG (Barnyardgrass); rate 0.0156 kg/ha)
3.0: herbicidal effect rating, CYPIR (CYPIR (Rice Flatsedge); 0.0313 kg/ha) | herbicidal effect rating, CYPIR (CYPIR (Rice Flatsedge); 0.0625 kg/ha) | Herbicidal rating GALAP (GALAP (Galium) [2]; rate 0.0156 kg/ha) | Herbicidal rating GALAP (GALAP (Galium) [2]; rate 0.0313 kg/ha) | Herbicidal rating CASOB (CASOB (Sicklepod) [6]; rate 0.0156 kg/ha) | Herbicidal rating ECHCG (ECHCG (Barnyardgrass); rate 0.0313 kg/ha) | Herbicidal rating SETVI (SETVI (Foxtail, Green); rate 0.0156 kg/ha) | Herbicidal rating SETVI (SETVI (Foxtail, Green); rate 0.0313 kg/ha) | Herbicidal rating ORYSAT (ORYSAT (Rice, Tebonnet); rate 0.0625 kg/ha)
1.0: Preemergence herbicidal rating CASOB (CASOB (Sicklepod) [3]; rate 0.1250 kg/ha) | Preemergence herbicidal rating GALAP (GALAP (Galium) [4]; rate 0.0156 kg/ha) | Preemergence herbicidal rating GALAP (GALAP (Galium) [4]; rate 0.0313 kg/ha) | Preemergence herbicidal rating GALAP (GALAP (Galium) [4]; rate 0.0625 kg/ha)
0.0: Preemergence herbicidal rating CASOB (CASOB (Sicklepod) [3]; rate 0.0156 kg/ha) | Preemergence herbicidal rating CASOB (CASOB (Sicklepod) [3]; rate 0.0313 kg/ha) | Preemergence herbicidal rating CASOB (CASOB (Sicklepod) [3]; rate 0.0625 kg/ha) | Preemergence herbicidal rating ZEAMX (ZEAMX (Corn, Field); rate 0.0156 kg/ha) | Preemergence herbicidal rating ZEAMX (ZEAMX (Corn, Field); rate 0.0313 kg/ha) | Preemergence herbicidal rating ZEAMX (ZEAMX (Corn, Field); rate 0.0625 kg/ha) | Preemergence herbicidal rating ZEAMX (ZEAMX (Corn, Field); rate 0.1250 kg/ha) | Preemergence herbicidal rating ZEAMX (ZEAMX (Corn, Field); rate 0.2500 kg/ha) | herbicidal effect rating, SAGPY ([5]; 0.0313 kg/ha) | herbicidal effect rating, SAGPY ([5]; 0.0625 kg/ha)
9.0: herbicidal effect rating, CYPIR (CYPIR (Rice Flatsedge); 0.1250 kg/ha) | herbicidal effect rating, CYPIR (CYPIR (Rice Flatsedge); 0.2500 kg/ha) | Herbicidal rating CHEAL ([1]; rate 0.0313 kg/ha) | Herbicidal rating CHEAL ([1]; rate 0.0625 kg/ha) | herbicidal effect rating, CYPSE (CYPSE (Flatsedge); 0.1250 kg/ha) | herbicidal effect rating, CYPSE (CYPSE (Flatsedge); 0.2500 kg/ha) | Herbicidal rating AMBEL (AMBEL (Ragweed, Common); rate 0.0313 kg/ha) | Herbicidal rating AMBEL (AMBEL (Ragweed, Common); rate 0.0625 kg/ha)
